The values that follow come from PubChem BioAssay (NCI).

Test systems include SF-295 CNS; TK-10 renal; U251 CNS; HOP-92 NSCLC; DU-145 prostate; MALME-3M melanoma; 786-0 renal; IGROV1 ovarian; ACHN renal; MOLT-4 leukemia.
Experiment in all cases: NCI anticancer screen, dose series, 48 h

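Five concentrations, 48 hours, 96-well plates. Here, GI50 denotes the concentration required for 50% inhibition of growth. TGI: concentration producing complete growth inhibition.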

With `CCC1(OC(=O)CN2CCN(CCO)CC2)C(=O)OCc2c1cc1n(c2=O)Cc2cc3ccccc3nc2-1` (stereo unspecified), the TGI in the assay with SF-295 CNS is 15.6 µM; in the assay with TK-10 renal it was above 100 µM; in the assay with U251 CNS, 2.41 µM; in the assay on HOP-92 NSCLC, 6.96 µM; in the assay with DU-145 prostate, 2.24 µM; with MALME-3M melanoma it was 12 µM. In addition, the TGI with 786-0 renal was found to be 2.53 µM; in the assay on IGROV1 ovarian, 17.4 µM; with ACHN renal it was 1.52 µM; with MOLT-4 leukemia, 1.59 µM.
On to `OC1c2ccccc2[C@@H]2[C@H]1[C@@H](c1ccccc1)C1(Cc3ccccc3C1O)[C@H]2c1ccccc1` (stereo partly specified), for which the TGI in the assay on SF-295 CNS was determined as 18.9 µM; with TK-10 renal it was 29.7 µM; with U251 CNS, 14.1 µM; in the assay on HOP-92 NSCLC, 12.6 µM; in the assay with DU-145 prostate, 22 µM; in the assay with MALME-3M melanoma, 17.9 µM. Moreover, the TGI with 786-0 renal is 8.28 µM; with IGROV1 ovarian, 16.6 µM; in the assay with ACHN renal, 16.7 µM; in the assay on MOLT-4 leukemia, 8.57 µM.
As for `O=C1/C(=C\c2ccc([N+](=O)[O-])cc2)Sc2scc(-c3ccc(O)c(O)c3)[n+]21`, the TGI came to 31.8 µM in the assay with SF-295 CNS; 10.6 µM in the assay on TK-10 renal; 20.5 µM in the assay on U251 CNS; 31.8 µM in the assay with HOP-92 NSCLC; 37.2 µM in the assay on DU-145 prostate; 22.5 µM with 786-0 renal. Besides, the TGI in the assay on IGROV1 ovarian was 19.7 µM; with ACHN renal, 47.5 µM; in the assay on MOLT-4 leukemia it was 51.3 µM.
In the case of `O=C(NCCN1C(=O)CN=C(c2ccc(Cl)cc2)c2cc(Cl)ccc21)OCc1ccccc1`, the TGI was 29.4 µM in the assay on SF-295 CNS; 37.3 µM in the assay on TK-10 renal; 30.1 µM in the assay with U251 CNS; 31.2 µM with HOP-92 NSCLC; 37.7 µM in the assay on DU-145 prostate; 31.6 µM in the assay on MALME-3M melanoma. For the same compound, the TGI with 786-0 renal was 28.9 µM; in the assay on IGROV1 ovarian, 37.8 µM; in the assay with ACHN renal it was 32.1 µM; with MOLT-4 leukemia, above 100 µM.
As for `CCOC(=O)N1CCN(Cc2cc(=O)n3cc(C)ccc3n2)CC1`, the TGI in the assay on SF-295 CNS, with TK-10 renal, in the assay on U251 CNS, in the assay with HOP-92 NSCLC, with DU-145 prostate and in the assay on MALME-3M melanoma was above 100 µM each time. The TGI in the assay on 786-0 renal, in the assay on IGROV1 ovarian, in the assay with ACHN renal and with MOLT-4 leukemia was above 100 µM each time.
For the compound `Cc1cc2nc(N3C(=O)/C(=C/c4cccc([N+](=O)[O-])c4)N=C3c3ccccc3)sc2cc1C`, the TGI was above 100 µM with SF-295 CNS; above 100 µM in the assay with TK-10 renal; 58 µM in the assay on U251 CNS; 58.2 µM in the assay on HOP-92 NSCLC; above 100 µM in the assay with DU-145 prostate; above 100 µM in the assay on 786-0 renal. Moreover, the TGI in the assay on IGROV1 ovarian was above 100 µM; in the assay on ACHN renal it was above 100 µM; in the assay with MOLT-4 leukemia it was 32.4 µM.
Regarding `O=S(=O)(c1cc(Cl)ccc1Cl)N1CCN(c2ccc(Cl)c(Cl)c2)CC1`, the TGI in the assay on SF-295 CNS is 50.5 µM; with TK-10 renal it was 54 µM; in the assay with U251 CNS, 54.8 µM; in the assay with HOP-92 NSCLC, 35.4 µM; with DU-145 prostate it was above 100 µM; with MALME-3M melanoma, above 100 µM. For the same compound, the TGI with 786-0 renal was 34.3 µM; in the assay with IGROV1 ovarian, above 100 µM; in the assay with ACHN renal, 95.9 µM; in the assay with MOLT-4 leukemia, above 100 µM.
Regarding `Cc1c2c(c(C)n1-c1ccccc1)C(=O)N(CCSC(=N)N)C2=O`, the TGI with SF-295 CNS, in the assay on TK-10 renal, in the assay with U251 CNS, with HOP-92 NSCLC, with DU-145 prostate and with MALME-3M melanoma was above 100 µM each time. Also, the TGI in the assay with 786-0 renal, with IGROV1 ovarian, in the assay with ACHN renal and with MOLT-4 leukemia was above 100 µM in each case.
Regarding `N#Cc1cccc(C2ON=C(c3ccc([N+](=O)[O-])cc3)N2C23CC4CC(CC(C4)C2)C3)c1` (stereo unspecified), the TGI in the assay on SF-295 CNS, in the assay with TK-10 renal, with U251 CNS, in the assay with HOP-92 NSCLC, in the assay on DU-145 prostate and with MALME-3M melanoma was above 100 µM throughout. The TGI with 786-0 renal, in the assay with IGROV1 ovarian, with ACHN renal and in the assay with MOLT-4 leukemia was above 100 µM each time.
As to `Cc1ccc(S(=O)(=O)N2CCCSCCSCCCSCC2)cc1`, the TGI in the assay on SF-295 CNS, in the assay on TK-10 renal, with U251 CNS, in the assay with HOP-92 NSCLC, in the assay with DU-145 prostate and in the assay with 786-0 renal was above 100 µM throughout. Besides, the TGI in the assay on IGROV1 ovarian and with MOLT-4 leukemia was above 100 µM throughout.
Take `COc1ccc(/C=C2\CN(C(=O)CCN3CCC(=NO)CC3)C/C(=C\c3ccc(OC)cc3)C2=O)cc1`: the GI50 in the assay on SF-295 CNS was 2.77 µM; with TK-10 renal, 2.86 µM; with U251 CNS, 1.74 µM; in the assay with HOP-92 NSCLC, 2.34 µM; in the assay on DU-145 prostate, 1.9 µM; with MALME-3M melanoma, 2.5 µM. Also, the results for the GI50 in the assay on IGROV1 ovarian, in the assay with ACHN renal and in the assay with MOLT-4 leukemia were 1.94 µM, 1.95 µM and 2.95 µM, respectively. The TGI turned out to be 7.69 µM in the assay with SF-295 CNS; 10.4 µM in the assay with TK-10 renal; 3.47 µM with U251 CNS; 9.32 µM with HOP-92 NSCLC; 3.67 µM with DU-145 prostate; 7.49 µM in the assay on MALME-3M melanoma. The TGI was determined as 4.36 µM with IGROV1 ovarian, 4.05 µM in the assay with ACHN renal and 26.9 µM in the assay on MOLT-4 leukemia.
For `CCOc1cc(/C=N\N(C)C)cc(/C=N\N(C)C)c1O`, the TGI with SF-295 CNS is above 100 µM; in the assay on TK-10 renal it was above 100 µM; in the assay on U251 CNS, 89.9 µM; in the assay on HOP-92 NSCLC it was 49.7 µM; with DU-145 prostate it was above 100 µM; with MALME-3M melanoma it was above 100 µM. Further, the values for the TGI in the assay on 786-0 renal, in the assay with ACHN renal and in the assay with MOLT-4 leukemia were above 100 µM, 56 µM and above 100 µM, respectively.
Turning to `COCCOCN(C(=O)C1=CCC2(CC1)OCCO2)c1ccccc1I`, the TGI in the assay on SF-295 CNS, in the assay on TK-10 renal, in the assay with U251 CNS, in the assay on HOP-92 NSCLC, with DU-145 prostate and with 786-0 renal was above 50 µM in each case. Further, the TGI in the assay with ACHN renal and in the assay on MOLT-4 leukemia was above 50 µM in each case.
